The values below come from patent US20130071432A1 (priority 2011, published 2013).

One data set concerns VSV. The conditions noted are these: mouse, in vivo; cited from earlier work.
A short description of data set [1]: in vitro. The conditions noted are these: human.
Data set [2] is described as follows: in vitro. The conditions noted are these: human, mouse, reduction in cell viability.
Data set [3] addresses T1, constitutively active, truncated mutant RNase L(NΔ335) (Homo sapiens, UniProt Q05823).
T1 sequence (Q05823 336-741 limits assumed): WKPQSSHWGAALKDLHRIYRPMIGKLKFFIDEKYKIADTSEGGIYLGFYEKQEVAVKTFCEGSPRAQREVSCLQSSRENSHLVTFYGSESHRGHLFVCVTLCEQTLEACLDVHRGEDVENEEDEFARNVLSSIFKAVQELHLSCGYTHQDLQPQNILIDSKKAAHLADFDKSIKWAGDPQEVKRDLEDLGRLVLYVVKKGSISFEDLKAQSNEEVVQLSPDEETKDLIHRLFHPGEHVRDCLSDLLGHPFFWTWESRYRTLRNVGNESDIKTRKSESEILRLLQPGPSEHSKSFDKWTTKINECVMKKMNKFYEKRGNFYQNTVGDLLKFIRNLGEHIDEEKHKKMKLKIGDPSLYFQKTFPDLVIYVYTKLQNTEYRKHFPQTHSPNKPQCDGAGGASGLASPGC
The data set is described as follows: biochemical.

For data set [4] the following is noted: in vivo; cited from earlier work.
The target of data set [5] is T2, full length RNase L activated by 2-5A (Homo sapiens, UniProt Q05823).
T2 sequence (Q05823 1-741): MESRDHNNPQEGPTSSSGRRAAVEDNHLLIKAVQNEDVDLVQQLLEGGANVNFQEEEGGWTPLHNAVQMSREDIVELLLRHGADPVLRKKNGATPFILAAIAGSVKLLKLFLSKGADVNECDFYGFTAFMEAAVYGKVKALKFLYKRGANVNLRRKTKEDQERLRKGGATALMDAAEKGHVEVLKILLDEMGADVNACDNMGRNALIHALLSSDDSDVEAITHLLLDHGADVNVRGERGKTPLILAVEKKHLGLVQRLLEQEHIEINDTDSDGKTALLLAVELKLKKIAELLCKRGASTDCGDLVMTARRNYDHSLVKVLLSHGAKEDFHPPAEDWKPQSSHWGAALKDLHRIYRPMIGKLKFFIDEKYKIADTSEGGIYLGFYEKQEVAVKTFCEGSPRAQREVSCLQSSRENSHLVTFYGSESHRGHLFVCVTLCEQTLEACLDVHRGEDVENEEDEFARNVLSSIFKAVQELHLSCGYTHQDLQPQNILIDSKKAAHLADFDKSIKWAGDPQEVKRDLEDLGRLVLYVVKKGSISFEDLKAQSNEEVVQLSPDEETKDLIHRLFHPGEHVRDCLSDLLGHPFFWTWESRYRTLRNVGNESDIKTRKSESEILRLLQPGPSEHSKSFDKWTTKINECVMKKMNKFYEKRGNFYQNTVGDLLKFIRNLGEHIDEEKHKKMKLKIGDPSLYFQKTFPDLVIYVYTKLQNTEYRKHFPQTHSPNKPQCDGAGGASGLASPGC
The data set is described as follows: biochemical.

Data set [6] is described as follows: in vitro. Conditions: human. This is another data set of the same source.

With `O=P1(N(CCCl)CCCl)NCCCO1` (stereo not shown) [CPA, cyclophosphamide], the “induction of antiviral antibodies against VSV challenge” value with VSV is recorded as “completely suppressed induction of antiviral antibodies”.
Turning to `CCN(CC)CCNC(=O)c1c(C)[nH]c(/C=C2\C(=O)Nc3ccc(F)cc32)c1C` [sunitinib], the cytotoxicity in “in vitro [1]” was 60%; in “in vitro [2]”, ~20%; in “in vitro [6]”, 60%. Also, the IC50 in data set [3] and in data set [5] was 1400 nM in each case. The serum concentrations entry in data set [4] is recorded as “equivalent to those of patients”.

As a reminder, the IC50 is the concentration that inhibits the measured activity by half.
